This passage reports EC50 results from BindingDB's records for doi:10.1016/j.bmcl.2006.10.013 (Abbott Laboratories, 2007).

The experiment has as its target Transcription factor Jun (Homo sapiens, UniProt P05412). Put plainly: Inhibition of c-Jun phosphorylation in HepG2 cells.

Transcription factor Jun, sequence (P05412 whole entry): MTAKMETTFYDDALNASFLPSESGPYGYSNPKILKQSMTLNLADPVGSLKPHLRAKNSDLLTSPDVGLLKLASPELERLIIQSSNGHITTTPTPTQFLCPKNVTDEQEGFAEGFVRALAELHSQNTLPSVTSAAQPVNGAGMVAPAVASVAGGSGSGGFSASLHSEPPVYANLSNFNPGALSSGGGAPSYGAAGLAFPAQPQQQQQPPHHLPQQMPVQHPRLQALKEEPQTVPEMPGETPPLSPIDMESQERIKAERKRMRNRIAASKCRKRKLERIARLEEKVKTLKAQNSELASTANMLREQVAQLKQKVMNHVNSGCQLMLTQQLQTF

In general, EC50 refers to the midpoint of the concentration-response curve. Low values mean greater potency, high ones weaker potency. The molecule `CCOc1nc(C(=O)NCc2ccc(S(C)(=O)=O)cc2)cc(N)c1C#N` [4-amino-5-cyano-6-ethoxy-N-[(4-methanesulfonylphenyl)methyl]pyridine-2-carboxamide] came in with an EC50 of 318 nM.
